Numbered stars: 1 amine (or outer) side, 2 acyl side, 3 side chain; on linkers, the order of the positions; unused ones are H or OH. Square brackets hold non-standard residues; d marks the D form. Peptide text beside a SMILES is read from it. * marks the point of attachment. X1 = O=C(O)C1(OCCCCC(=O)[*:2])CC(O)C(N[*:1])C([C@@H](O)[C@H](O)CO)O1; NH(1-naphthylmethyl) = c1ccc2c(CN*)cccc2c1
Test: Tested for inhibition of hemagglutinination in chicken red blood cell (RBC)
Format: functional, Gallus gallus

Point of comparison: `C=CC(=O)NCCCOCCCCOC1(C(=O)O)CC(O)C(NC(C)=O)C([C@@H](O)[C@H](O)CO)O1` (some centres undefined), Ki 1000 µM. Against it:
- CC(=O)NC1C(OC(=O)CNS(=O)(=O)c2cccc3c(N(C)C)cccc23)CC(OCCCCCCC(=O)NCc2cccc3ccccc23)(C(=O)O)OC1[C@@H](O)[C@H](O)CO (some centres undefined) — 330-fold lower, 3 µM
- C=CC(=O)NOCCCOCCCCOC1(C(C)=O)CC(O)C(NC(C)=O)C([C@@H](O)[C@H](O)CO)O1 (some centres undefined) — not separable, > 600 µM
- COC1(C(=O)O)CC(O)C(NC(C)=O)C([C@@H](O)C(O)O)O1 (some centres undefined) — 2.5-fold higher, 2500 µM
- C=CC(=O)NOCCCOCCCCOC1(C(N)=O)CC(O)C(NC(C)=O)C([C@@H](O)[C@H](O)CO)O1 (some centres undefined) — not separable, > 600 µM
- CC(=O)NC1C(O)CC(OCCCCC(=O)NCC(=O)NCC(=O)NCC(=O)NCC(=O)NCc2cccc3ccccc23)(C(=O)O)OC1[C@@H](O)[C@H](O)CO (some centres undefined) (Ac-[X1]GGGG-{NH(1-naphthylmethyl)}) — 33-fold lower, 30 µM
- C=CC(=O)NOCCCOCCCCOC1(C(=O)O)CC(O)C(NC(C)=O)C([C@@H](O)[C@H](O)CO)O1 (some centres undefined) — 3300-fold lower, 0.3 µM
- COC1(C(=O)O)CC(O)C(NC(C)=O)C([C@@H](O)[C@H](O)CO)O1 (some centres undefined) — 2.5-fold higher, 2500 µM
- COC(=O)C1(OC)CC(O)C(NC(C)=O)C([C@@H](O)[C@H](O)CO)O1 (some centres undefined) — 14-fold higher, 14000 µM
